Data on one compound can be found in patent publication US5256788A, “Moranoline derivatives and their production and the use of moranoline and its derivatives as a stabilizing agent for enzymes” (Nippon Shinyaku Co. Ltd., priority 1989, dated 1993).

One assay deals with T1, immobilized CGTase (Geobacillus stearothermophilus, UniProt P31797).
T1 construct: purchased Hayashibara Biochemical Research Institute
T1 sequence (P31797 32-711): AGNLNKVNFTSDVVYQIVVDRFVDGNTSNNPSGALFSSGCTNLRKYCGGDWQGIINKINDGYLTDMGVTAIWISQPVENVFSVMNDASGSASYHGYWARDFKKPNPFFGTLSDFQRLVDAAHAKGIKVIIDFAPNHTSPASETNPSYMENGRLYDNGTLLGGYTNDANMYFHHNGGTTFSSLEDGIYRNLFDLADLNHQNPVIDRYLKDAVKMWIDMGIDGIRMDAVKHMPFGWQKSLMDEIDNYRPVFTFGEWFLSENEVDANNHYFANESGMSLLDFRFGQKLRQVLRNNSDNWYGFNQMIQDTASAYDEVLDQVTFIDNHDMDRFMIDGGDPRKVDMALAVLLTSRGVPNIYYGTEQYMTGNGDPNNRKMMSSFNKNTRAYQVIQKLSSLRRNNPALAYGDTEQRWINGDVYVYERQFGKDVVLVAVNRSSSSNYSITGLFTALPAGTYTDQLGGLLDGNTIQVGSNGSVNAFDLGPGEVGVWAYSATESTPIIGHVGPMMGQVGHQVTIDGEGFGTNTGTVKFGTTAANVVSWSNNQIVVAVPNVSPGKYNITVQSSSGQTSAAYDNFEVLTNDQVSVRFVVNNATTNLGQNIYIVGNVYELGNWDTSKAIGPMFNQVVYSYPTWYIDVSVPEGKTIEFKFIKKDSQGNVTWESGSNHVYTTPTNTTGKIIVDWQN
Kind of assay: Stabilization of immobilized CGTase, sugar transfer continuous reaction of N-methylmoranoline. Conditions: 3360 h; after 140 days, 55° C., 1.5 w/v% N-methylmoranoline and 9 w/v% soluble starch, 160 ml/day; read-out: activity retained. Type of assay: biochemical, Bacillus stearothermophilus. As for the experimental part: The immobilized CGTase, 20 ml, obtained in Reference Example 1 was packed in a column having a diameter of 1 cm equipped with a jacket and a solution with the pH being not adjusted containing 1.5 w/v% of N-methylmoranoline and 9 w/v% of soluble starch was continuously passed through the column at 55° C. in a passing velocity of 160 ml/day to react them, whereby the reaction progress rate of the passing liquid was determined with passage of time. The reaction progress rate and activity retention rate were determined in a manner similar to Reference 4. The results reveal that even after 140 days, almost 100% of the activity was retained.
The immobilized CGTase, 20 ml, obtained in Reference Example A was packed in a column having a diameter of 1 cm equipped with a jacket and a solution with the pH being not adjusted containing 1.5 w/v% of N-methylmoranoline and 9 w/v% of soluble starch was continuously passed through the column at 55° C. in a passing velocity of 160 ml/day to react them, whereby the reaction progress rate of the passing liquid was determined with passage of time. The reaction progress rate and activity retention rate were determined in a manner similar to Example 27.

The next assay has as its system β-glucosidase. Briefly: Stabilization of β-glucosidase by moranoline and N-methylmoranoline. Type of assay: biochemical. The settings on record: 6 mg/ml of the hydrochloride, kept at 60° C. As for the experimental part: Test samples were (1) 1 ml of 0.2M buffer solution of β-glucosidase (300 μg/ml) alone, (2) 1 ml of 0.2M buffer solution of β-glucosidase (300 μg/ml) supplemented with 6 mg/ml of moranoline hydrochloride and, (3) 1 ml of 0.2M buffer solution of β-glucosidase (300 μg/ml) supplemented with 6 mg/ml of N-methylmoranoline hydrochloride. These test samples were kept at 60° C. and the residual enzyme activity was measured with passage of time.
For determination of the enzyme activity, there was used a method measuring absorbancy at 400 nm using […] as a substrate.
That is, 200 μl of 0.014M p-nitrophenyl-β-D-glucoside, 200 μl of the enzyme solution taken from each sample for sampling with passage of time which was appropriately diluted, and 600 μl of 0.2M acetate buffer solution (pH 4.5) were reacted at 30° C. for 15 minutes. After 2 ml of 0.1M disodium carbonate was added thereto to terminate the reaction, a color was formed and the color was measured at 400 nm. When absorbancy at the initiation of the reaction was made 100, relative absorbancy in each time was defined to be residual activity.

A further assay has as its target T2, glucoamylase (Rhizopus arrhizus, UniProt P07683).
T2 construct: maltose substrate
Briefly: Stabilization of GA (aqueous solution) by moranoline, N-methylmoranoline. Type of assay: biochemical, Rhizopus niveus. As for the experimental part:
As the enzyme, Rhizopus niveus-derived reagent glucoamylase manufactured by Seikagaku Kogyo Co., Ltd. was used.
After 5 mg of the enzyme was dissolved in 1 ml of 0.1M acetate buffer solution (pH 5.0), moranoline and N-methylmoranoline were dissolved in the solution in a concentration of 6000 μg/ml. The solution was charged in a test tube with a screw stopper followed by incubation at 50° C. Each enzyme solution was diluted with 0.1M acetate buffer solution (pH 5.0) to 100-fold and 100 μl of the dilution was taken. After 400 μl of 5% maltose solution (0.05M acetate buffer solution, pH 4.6) was added thereto, the mixture was reacted at 40° C. for 20 minutes. […] Thereafter, the system was ice cooled and absorbency was measured at 500 nm to determine the glucose amount. […] When the initial enzyme activity (amount of glucose produced) was made […], relative enzyme activity was determined. […]
After 5 mg of the enzyme was dissolved in 1 ml of 0.1M acetate buffer solution (pH 5.0), moranoline and N-methylmoranoline were dissolved in the solution in a concentration of 6000 μg/ml. […] Thereafter, the system was ice cooled and absorbancy was measured at 500 nm to determine the glucose amount. […] When the initial enzyme activity (amount of glucose produced) was made 100, relative enzyme activity was determined. […]

T2 sequence (P07683 26-604): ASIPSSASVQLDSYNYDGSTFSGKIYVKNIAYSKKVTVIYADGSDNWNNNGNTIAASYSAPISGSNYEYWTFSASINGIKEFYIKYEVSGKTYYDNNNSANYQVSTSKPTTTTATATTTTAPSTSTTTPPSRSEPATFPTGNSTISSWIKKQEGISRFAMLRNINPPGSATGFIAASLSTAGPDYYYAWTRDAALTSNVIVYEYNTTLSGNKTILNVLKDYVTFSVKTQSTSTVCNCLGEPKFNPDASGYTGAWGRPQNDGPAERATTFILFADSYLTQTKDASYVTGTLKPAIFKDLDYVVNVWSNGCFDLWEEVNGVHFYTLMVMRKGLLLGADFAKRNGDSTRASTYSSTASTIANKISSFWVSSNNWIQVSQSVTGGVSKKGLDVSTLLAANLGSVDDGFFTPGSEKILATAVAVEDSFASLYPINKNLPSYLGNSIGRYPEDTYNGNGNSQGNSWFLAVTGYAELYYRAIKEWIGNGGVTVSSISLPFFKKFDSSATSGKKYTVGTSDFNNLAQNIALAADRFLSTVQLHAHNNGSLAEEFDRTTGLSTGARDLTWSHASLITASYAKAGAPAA

Consider `CN1C[C@H](O)[C@@H](O)[C@H](O)[C@H]1CO` [N-methylmoranoline], for which the activity at 15000 µg/mL at immobilized CGTase is ~100%. In addition, in the assay with β-glucosidase, the “stabilizing effect (residual activity, FIG. 4)” value was “stabilizing effect”. At glucoamylase, the “inhibition of the enzyme activity of glucoamylase” value is listed as “inhibit the enzyme activity of glucoamylase”.
